Here are results for one compound from US12485132B2, “GPX4 inhibitors and senolytic compounds and uses thereof” (Rubedo Life Sciences, Inc., priority 2023, dated 2025).

SMILES strings stand for the structures.

The subject of one test is senescent HEPG2 cells. The test is described as follows: Senescence assay: viability of senescent HEPG2 cells. To be noted: Homo sapiens, 24-72 hours incubation, viability by CellTiter-Glo or XTT, read-out: Absolute IC50 average HEPG2_SEN IC50. The test is classed as cell-based. The method in brief: (§1)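 A549 and HEPG2 cells made senescent by sublethal chemotherapy (bleomycin, gemcitabine, doxorubicin or 5-fluorouridine) plus recovery, verified by low EdU and high SA-β-Gal. Ten-point duplicate dosing for 24-72 h; viability by CellTiter-Glo or XTT versus untreated cells; absolute IC50 from four-parameter Hill fit.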
In general terms: ATP-based viability assays read luminescence as a measure of living cells.

In a further test the test system is senescent A549 cells. The test is described as follows: Senescence assay: viability of senescent A549 cells. The class given is cell-based. To be noted: Homo sapiens, 24-72 hours incubation, viability by CellTiter-Glo or XTT, read-out: Absolute IC50 average A549_SEN IC50. The method in brief: as §1
For another test, the system named is A549 cells. The test is described as follows: Lipid peroxidation assay by flow cytometry (BODIPY 581/591 C11). To be noted: 0.02, 0.2 and 2 μm, 18.5 hours. The class given is cell-based, human. As for the experimental part: Inhibition of the cellular activity of GPX4 can be estimated by changes in lipid peroxidation levels that can be detected by the oxidation of BODIPY 581/591 C11, a ratiometric fluorescent indicator reacting with free radicals produced during membrane peroxidation (Drummen et al., Free Radic Biol Med 2002 33 (4): 473-90; and Martinez et al., Methods Mol Biol 2020 2018:125-130). For a lipid peroxidation assay by flow cytometry, A549 cells were seeded at 333,000 cells per well in 12-well plates. On the following day, culture media was replaced with 1 mL media containing either DMSO or compound 32 (0.02, 0.2 and 2 μm), and cultures were incubated at 37° C. for 18.5 hours. Thirty minutes before the end of the incubation period, 2 μm BODIPY 581/591 C11 (D3861, Invitrogen) was added to cells. Following cell collection by trypsinization, cells were subjected to flow cytometry analysis (BD FACSAria), and gated for the live cell population, which was analyzed for fluorescence signal associated with the oxidized state of BODIPY 581/591 C11. The results are illustrated in FIG. 4.
Background: In flow cytometry, cells or beads pass a laser one at a time.

The subject of test [1] is senescent normal human dermal fibroblasts. The test is described as follows: Rescue of compound-induced cell death by ferrostatin-1 in senescent fibroblasts. The test is classed as cell-based. To be noted: compounds at 1.11 μM, ferrostatin-1 at 0.375 and 6 μM; 24 hours; CellTiter-Glo. An excerpt: Cell death induced by ferroptosis-inducing agents can be characterized by rescuing the cellular response with radical trapping agents that prevent the accumulation of phospholipid hydroperoxides (Stockwell et al., Cell Chem Biol 2020 27 (4): 365-375). As such, ferrostatin-1 was identified as a potent inhibitor of ferroptosis for which a free radical trapping mechanism had been reported (Skouta et al., J Am Chem Soc 2014 136 (12): 4551-6; Zika et al., ACS Cent Sci. 2017 3 (3): 232-243; and Miotto et al., Redox Biol. 2020; 101328). To determine whether compounds 18 and 32 induce ferroptosis in senescent cells, normal human dermal fibroblasts were induced to undergo senescence by treatment with a sublethal concentration of chemotherapy (bleomycin sulfate), followed by a rest period without chemotherapy similarly to previous reports (Aoshiba et al., 2003 3:436-43). Cells were maintained in DMEM media (high glucose, 4 mM L-glutamine, no sodium pyruvate) supplemented with 10% heat-inactivated fetal bovine serum in a humidified incubator at 37° C. with 5% carbon dioxide and 5% oxygen. Cellular senescence was qualified by reduced EdU (5-ethynyl-2′-deoxyuridine) incorporation and increased SA-β-Gal (senescence-associated beta-galactosidase) staining compared to proliferating untreated cells. Senescent fibroblasts were plated into 96-well plates at a density of 10,000 cells per well. The next day, ferrostatin-1 was diluted in cell medium to reach a final concentration of 0.375 and 6 μM and was added to cells. Approximately 30 minutes after the addition of ferrostatin-1, compounds 18 and 32 at 1.11 μM, or the peptidyl transfer inhibitor puromycin at 10 μM were added to cells. Cells were incubated with the compounds for 24 hours, at which point viability was quantified using the CellTiter-Glo assay (Promega). The viability for treated cells was determined relative to untreated control cells.

Turning to `C#CC(F)(F)[C@]1(O)CC[C@H]2[C@@H]3CCC4=CC(=NNC(=O)NC5CC5)CCC4=C3[C@H](c3ccc(C4CC4)cc3)C[C@@]21C` [Compound 32, N-cyclopropyl-2-((8S,11S,13S,14S,17S)-11-(4-cyclopropylphenyl)-17-(1,1-difluoroprop-2-yn-1-yl)-17-hydroxy-13-methyl-1,2,6,7,8,11,12,13,14,15,16,17-dodecahydro-3H-cyclopenta[a]phenanthren-3-ylidene)hydrazine-1-carboxamide], the IC50 in the test on senescent HEPG2 cells and in the test with senescent A549 cells was 0.1 to 10 nM throughout. The “cellular lipid peroxidation (oxidized BODIPY 581/591 C11 signal)” value in the test on A549 cells is recorded as “induced markers of cellular lipid peroxidation”. The “inhibition by ferrostatin-1 of compound-induced cell death” value in test [1] is “potently inhibits cell death induced by compounds 18 and 32”.
